Test results as given in ChEMBL document CHEMBL1128616, “A pair of new apotirucallane triterpenes, meliavolkensins A and B, from Melia volkensii (Meliaceae)” (1995).
≈ marks a conversion by molar mass, not a printed value.

Assays:
Format in all cases: functional
A549 = assay: Compound was tested for its cytotoxic activity in MTT assay against A-549 cell line (human lung carcinoma); details: read-out: ED50 (the source's name)
Artemia = assay: Compound was tested for its cytotoxic activity by brine shrimp lethality test
HT-29 = assay: Compound was tested for its cytotoxic activity in MTT assay against HT-29 cell line (human colon adenocarcinoma); details: read-out: ED50 (the source's name)
MCF9 = assay: Compound was tested for its cytotoxic activity in MTT assay against MCF-9 cell line (human breast carcinoma); details: read-out: ED50 (the source's name)

Row | SMILES | EC50 (A549) [µg/mL] | LC50 (Artemia) [µg/mL] | EC50 (HT-29) [µg/mL] | EC50 (MCF9) [µg/mL]
1 | CO[C@]1(C(C)(C)O)CC[C@@H]([C@@H]2CC=C3[C@@]4(C)C(CC[C@]32C)[C@]2(C)C(C[C@H]4OC(C)=O)C(C)(C)C(OC(=O)c3ccccc3)C[C@@H]2OC(C)=O)CO1 (stereo partly specified) | 13.3 (≈ 18.7 µM) | 107 (≈ 150 µM) | 0.49 (≈ 0.691 µM) | 3.06 (≈ 4.32 µM)
2 | CO[C@@]1(C(C)(C)O)CC[C@@H]([C@@H]2CC=C3[C@@]4(C)C(CC[C@]32C)[C@]2(C)C(C[C@H]4OC(C)=O)C(C)(C)C(OC(=O)c3ccccc3)C[C@@H]2OC(C)=O)CO1 (stereo partly specified) | 10.6 (≈ 15 µM) | 89.3 (≈ 126 µM) | 0.25 (≈ 0.353 µM) | 2.02 (≈ 2.85 µM)
3 | COc1cccc2c1C(=O)c1c(O)c3c(c(O)c1C2=O)C[C@@](O)(C(=O)CO)C[C@@H]3O[C@H]1C[C@H](N)[C@H](O)[C@H](C)O1 [DOXORUBICIN] | 0.00844 (≈ 0.0155 µM) | – | 0.0261 (≈ 0.048 µM) | 0.0673 (≈ 0.124 µM)
